Consider 2 compounds from patent US10238631B2, “Sesquiterpene derivatives and their use in inflammation or cancer treatment” (Academia Sinica, priority 2014, dated 2019).

Test [1] has as its system A498 kidney cancer cell line. The test can be described thus: MTT cell viability assay, A498. It is filed as cell-based. As to conditions: Homo sapiens, 24 h. Here is the method:
(§1) Normal or cancer cells (2×10^3 to 1×10^4 cells/well) were seeded in 96-well plate for overnight and treated with different compounds for 24 h to 72 h. Cells growth were determined by MTT-based colorimetric assays according to. Viability of the test cells treated with vehicle (0.5% DMSO) only was defined as 100% viable. Survival of cells after treatment with DETDs was calculated using the following formula: viable cell number (%)=OD570 (treated cell culture)/OD570 (vehicle control)×100.
(§2) Based on toxicity results of DET and DETDs on different breast cancer and melanoma cell lines, we selected DETD-6, -32, -35 and -39, under the consideration of structure activity relationship for evaluating their suppression effect against other cancer types of cell line with indicated tumor origin in Table 5. […] The cells were treated with compounds for 24 h and then subjected to MTT assays.

Test [2] deals with MDA-MB-231 (ER−, PR−, Her2−) human breast cancer cells. The test can be described thus: MTT cell viability assay, MDA-MB-231 cells. It is filed as cell-based. Conditions: for IC50: Homo sapiens. In short, it runs like this: (§3)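 Viability is scored colorimetrically by MTT after cells, plated at 2×10^3 to 1×10^4 per well the night before, receive compounds for 24 h to 72 h; 0.5% DMSO-treated wells define 100%.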

Test [3] deals with KATO III stomach cancer cell line. Nature of the test: MTT cell viability assay, KATO III. It is filed as cell-based. As to conditions: Homo sapiens, 24 h. The method, then:
as §1, §2

In test [4] the test system is B16-F10 (NRAS mutation). The test can be described thus: MTT cell viability assay, B16-F10 melanoma. Conditions: Mus musculus, B16-F10, 24 h. Format: cell-based. In short, it runs like this:
(§4)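 Viability is determined colorimetrically with MTT after a 24 h to 72 h compound treatment. Vehicle wells containing 0.5% DMSO define 100% viability, and treated OD570 values are expressed relative to them.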

The test system of test [5] is RAW264.7 (normal macrophage). The test can be described thus: MTT cell viability assay, RAW264.7 macrophages. It is filed as cell-based, mouse. Conditions: for IC50: Mus musculus, RAW264.7, 24 h. In short, it runs like this:
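RAW264.7 macrophages (2×10^5 cells/well) pretreated with compounds 1 h, then incubated 24 h with or without 100 ng/μL LPS. Viability by MTT colorimetric assay run in parallel with Griess nitrite measurement.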

Test [6] relates to HTB-68 (NRAS mutation). The test can be described thus: MTT cell viability assay, HTB-68 melanoma. Format: cell-based, human. Conditions: 24 h. In short, it runs like this: as §4
The subject of test [7] is LPS-induced nitric oxide (NO) production in RAW 264.7 cells. Nature of the test: Nitric oxide production in LPS-stimulated macrophages (Griess). It is filed as cell-based, mouse. Conditions: for IC50: Mus musculus, LPS-stimulated RAW264.7, nitrite 24 h after LPS. In short, it runs like this:
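RAW 264.7 macrophages (2×10^5 cells/well) were pretreated with compound for 1 h and then stimulated with 100 ng/μL LPS for 24 h. NO was measured as nitrite in the medium by the Griess reaction. Viability was checked in parallel by MTT.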

The subject of test [8] is MeWo (No NRAS or BRAF mutation). Nature of the test: MTT cell viability assay, MeWo melanoma. Format: cell-based, human. As to conditions: 24 h. A digest of the protocol: as §4
Test [9] relates to MCF-7 (ER+, Her2−) human breast cancer cells. The test can be described thus: MTT cell viability assay, MCF-7 cells. It is filed as cell-based. In short, it runs like this: as §3
Test [10] deals with DMBA/TPA-induced skin papillomas accelerated by PLX4032. Conditions: DMBA/TPA + PLX4032 20 mg/kg, with DET or DETD-35 10 mg/kg i.p. twice per week.
Protocol: Dorsal skin of six weeks old female FVB/N mice were shaved and treated with topical application of DMBA (25 μg in 100 μL acetone). One week after DMBA treatment, the same skin area were treated topically twice weekly with 12-O-tetradecanoylphorbol-13-acetate (TPA) (4 μg in 100 μL acetone). The area was regularly shaved and tumor formation was assessed twice weekly, and tumors were defined as raised lesions of a minimum diameter of 1 mm.
The test system of test [11] is PC3 (Prostate). Nature of the test: MTT cell viability assay, PC3. It is filed as cell-based. Conditions: 24 h. The method, then:
as §1, §2

The test system of test [12] is A375 human melanoma tumor. The test can be described thus: A375 melanoma xenograft model in NOD/SCID mice. Conditions: 20 mg/kg i.p.; PLX4032 every day, DET and DETD-35 every two days. Format: in vivo, mouse. The method, then:
A375 and A375-R melanoma cells (3×10^6) were injected subcutaneously to the flanks of the six weeks old NOD/SCID mice. One week after the inoculation, the mice were randomized into treated groups (n=8 per group) and the treatments were started. Body weight and tumor volume of the mice were recorded every three days using formula a×b^2×0.5, where a and b represented the larger and smaller tumor diameters.
We used A375 human melanoma xenograft model to evaluate the in vivo bioefficacy of DET. DETD-35, PLX4032 and compound drug combination. […] For single compound or drug treatment group, PLX4032 was administered i.p. every day and DET and DETD-35 were administered i.p. every two days. For combination treatment, PLX4032 was administered every two days while DET and DETD-35 were administered every four days. […] Compound-drug combinational treatments were carried out with alternative administration of DET (20 mg/kg) or DETD-35 (20 mg/kg) and PLX4032 (20 mg/kg) by which DET or DETD-35 and PLX4032 treatment frequency were only half of the single compound or drug administration alone.

The test system of test [13] is U937 lymphoma line. The test can be described thus: MTT cell viability assay, U937. Format: cell-based. Conditions: Homo sapiens, U-937, 24 h. The method, then:
as §1, §2

For test [14], the system named is HCT-116 colon cancer cell line. The test can be described thus: MTT cell viability assay, HCT-116. It is filed as cell-based. As to conditions: Homo sapiens, 24 h. Here is the method:
as §1, §2

Test [15] concerns A375 (BRAF mutation). The test can be described thus: MTT cell viability assay, A375 melanoma. It is filed as cell-based, human. As to conditions: MTT. A digest of the protocol:
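A375 cells were seeded at 2×10^3 to 1×10^4 per well overnight and then exposed to compounds for 24 h to 72 h. Viability was measured by MTT absorbance at OD570 relative to 0.5% DMSO vehicle (100%), and IC50 was derived from it. Combination with PLX4032 was scored by combination index.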

The mark [16] stands for this setting: MDA-MB-231, 24 h, read-out: IC50 on cell viability, MDA-MB-231 (ER−, PR−, Her2−).
Setting [17] is: MDA-MB-231, Table 5, 24 h, read-out: IC50 viability MDA-MB-231 (Breast).
[18] abbreviates: 24 h, read-out: IC50 on cell viability, B16-F10 (NRAS mutation).
Setting [19] is: Table 5, 24 h, read-out: IC50 viability B16-F10 (mouse) (Skin).
The mark [20] stands for this setting: MCF7, 24 h, read-out: IC50 on cell viability, MCF-7 (ER+, Her2−).
Setting [21] is: MCF7, Table 5, 24 h, read-out: IC50 viability MCF-7 (Breast).
[22] abbreviates: Homo sapiens, A-375, 24 h, 24 h, read-out: IC50 on cell viability, A375 (BRAF mutation).

Read-outs that look alike come from different tables or passages of the source.

Turning to `C=C(C)C(=O)O[C@H]1CC2=C[C@@H](C/C(C)=C/[C@H]3OC(=O)C(=C)[C@H]13)OC2=O` [DET, deoxyelephantopin, reference compound], the IC50 was 2.82 µM in [1]; 14 µM in test [2] (setting [16]); 14 µM in test [2] (setting [17]); 1.47 µM in [3]; around 6 µM in test [4] (setting [18]); 6 µM in [4] (setting [19]). Also, the IC50 was above 10 µM in test [5]; above 10 µM in [6]; above 10 µM in [6] (Homo sapiens); 2.9 µM in [7]; above 10 µM in test [8]; above 10 µM in test [8] (Homo sapiens, MeWo). Also, the half-maximal inhibitory concentration (IC50) turned out to be 5 µM in test [9] (setting [20]); 5 µM in test [9] (setting [21]); 12.8 µM in test [11]; 0.48 µM in test [13]; 0.28 µM in test [14]; 5.9 µM in [15] (24 h, read-out: IC50 on cell viability, A375 (BRAF mutation)). Moreover, the half-inhibitory concentration (IC50) in [15] (setting [22]) is around 6 µM. Besides, the “papillomas size in average” value in [10] amounted to 26.3 mm^3. Further, in [10], the total papillomas number was 11.7. Moreover, the “reduction of tumor mass vs tumor control” value in [12] is recorded as 47.5%.
For `C=C1C(=O)O[C@H]2CC3=C[C@@H](C/C(C)=C/[C@@H](OC(=O)Cc4cccc5ccccc45)[C@H]12)OC3=O` [DETD-35], the half-inhibitory concentration (IC50) amounted to 0.79 µM in test [1]; 3.5 µM in test [2] (setting [16]); 3.5 µM in test [2] (setting [17]); 0.65 µM in test [3]; 2.7 µM in [4] (setting [18]); 2.7 µM in test [4] (setting [19]). Moreover, the IC50 in test [5] is above 10 µM; in test [6] (Homo sapiens), 3.9 µM; in test [7], 1.5 µM; in test [8] (Homo sapiens, MeWo) it was 6 µM; in test [9] (setting [20]), 3.2 µM; in test [9] (setting [21]), 3.9 µM. For the same compound, the concentration for half-maximal inhibition (IC50) in test [11] came to 5.5 µM; in [13], 0.18 µM; in test [14] it was 0.14 µM; in test [15] (72 h, read-out: IC50 on A375 cells) it was 0.8 µM; in test [15] (setting [22]) it was 2.5 µM; in [15] (Homo sapiens, A-375, 72 h, 72 h, read-out: IC50 on A375 cells), 0.85 µM. In addition, the “IC60 on MDA-MB-231 cells” value in test [2] (24 h) worked out at 3.32 µM. In addition, the “IC50 on cell viability, RAW264.7 (normal macrophage)” value in [5] (24 h) was “no detected toxicity”. For the same compound, in test [7], the “fold decrease in IC50 of NO production vs DET” value worked out at 2 fold. The “papillomas size in average” value in test [10] was found to be 8.9 mm^3. The total papillomas number in test [10] is 4.8. Besides, the “reduction of tumor mass vs tumor control” value in test [12] was 70.5%.
